Assay results taken from ChEMBL document CHEMBL3272011, “Aminobenzoic acid diuretics. 9. 3,4-Disubstituted 5-acylaminobenzoic acids and related compounds” (1977).
Activity calls are given as the source filed them. The rule behind the calls is not given here.

Key:
[1] = tested on: Canis familiaris; experiment: Diuretic effect in mongrel dog assessed as urinary excretion of Na+ at 1 mg/kg, iv after 3 hrs (reference value: 0.10 +/- 0.02 mequiv/kg); assay type: functional, Canis lupus familiaris, Urine
[2] = tested on: Canis familiaris; experiment: Diuretic effect in mongrel dog assessed as urinary excretion of Cl- at 1 mg/kg, iv after 3 hrs (reference value: 0.08 +/- 0.02 mequiv/kg); assay type: functional, Canis lupus familiaris, Urine
[3] = tested on: Canis familiaris; experiment: Diuretic effect in mongrel dog assessed as urinary excretion of water at 1 mg/kg, iv after 3 hrs (reference value: 0.93 +/- 0.35 ml/kg); assay type: functional, Canis lupus familiaris, Urine
[4] = tested on: Canis familiaris; experiment: Diuretic effect in mongrel dog assessed as urinary excretion of K+ at 1 mg/kg, iv after 3 hrs (reference value: 0.16 +/- 0.01 mequiv/kg); assay type: functional, Canis lupus familiaris, Urine
[5] = tested on: Canis familiaris; experiment: Diuretic effect in mongrel dog assessed as urinary excretion of Cl- at 0.1 mg/kg, iv after 3 hrs (reference value: 0.08 +/- 0.02 mequiv/kg); assay type: functional, Canis lupus familiaris, Urine
[6] = tested on: Canis familiaris; experiment: Diuretic effect in mongrel dog assessed as urinary excretion of K+ at 0.1 mg/kg, iv after 3 hrs (reference value: 0.16 +/- 0.01 mequiv/kg); assay type: functional, Canis lupus familiaris, Urine
[7] = tested on: Canis familiaris; experiment: Diuretic effect in mongrel dog assessed as urinary excretion of Na+ at 0.1 mg/kg, iv after 3 hrs (reference value: 0.10 +/- 0.02 mequiv/kg); assay type: functional, Canis lupus familiaris, Urine
[8] = tested on: Canis familiaris; experiment: Diuretic effect in mongrel dog assessed as urinary excretion of water at 0.25 mg/kg, po after 3 hrs (reference value: 0.93 +/- 0.35 ml/kg); assay type: functional, Canis lupus familiaris, Urine
[9] = tested on: Canis familiaris; experiment: Diuretic effect in mongrel dog assessed as urinary excretion of K+ at 0.25 mg/kg, po after 3 hrs (reference value: 0.16 +/- 0.01 mequiv/kg); assay type: functional, Canis lupus familiaris, Urine
[10] = tested on: Canis familiaris; experiment: Diuretic effect in mongrel dog assessed as urinary excretion of water at 0.1 mg/kg, iv after 3 hrs (reference value: 0.93 +/- 0.35 ml/kg); assay type: functional, Canis lupus familiaris, Urine
[11] = tested on: Canis familiaris; experiment: Diuretic effect in mongrel dog assessed as urinary excretion of Cl- at 0.25 mg/kg, po after 3 hrs (reference value: 0.08 +/- 0.02 mequiv/kg); assay type: functional, Canis lupus familiaris, Urine
[12] = tested on: Canis familiaris; experiment: Diuretic effect in mongrel dog assessed as urinary excretion of Na+ at 0.25 mg/kg, po after 3 hrs (reference value: 0.10 +/- 0.02 mequiv/kg); assay type: functional, Canis lupus familiaris, Urine
[13] = tested on: Canis familiaris; experiment: Diuretic effect in mongrel dog assessed as urinary excretion of K+ at 10 mg/kg, iv after 3 hrs (reference value: 0.16 +/- 0.01 mequiv/kg); assay type: functional, Canis lupus familiaris, Urine
[14] = tested on: Canis familiaris; experiment: Diuretic effect in mongrel dog assessed as urinary excretion of water at 10 mg/kg, iv after 3 hrs (reference value: 0.93 +/- 0.35 ml/kg); assay type: functional, Canis lupus familiaris, Urine
[15] = tested on: Canis familiaris; experiment: Diuretic effect in mongrel dog assessed as urinary excretion of Na+ at 10 mg/kg, iv after 3 hrs (reference value: 0.10 +/- 0.02 mequiv/kg); assay type: functional, Canis lupus familiaris, Urine
[16] = tested on: Canis familiaris; experiment: Diuretic effect in mongrel dog assessed as urinary excretion of Cl- at 10 mg/kg, iv after 3 hrs (reference value: 0.08 +/- 0.02 mequiv/kg); assay type: functional, Canis lupus familiaris, Urine
[17] = tested on: Canis familiaris; experiment: Diuretic effect in mongrel dog assessed as urinary excretion of water at 1 mg/kg, po after 3 hrs (reference value: 0.93 +/- 0.35 ml/kg); assay type: functional
[18] = tested on: Canis familiaris; experiment: Diuretic effect in mongrel dog assessed as urinary excretion of Na+ at 0.25 mg/kg, iv after 3 hrs (reference value: 0.10 +/- 0.02 mequiv/kg); assay type: functional, Canis lupus familiaris, Urine
[19] = tested on: Canis familiaris; experiment: Diuretic effect in mongrel dog assessed as urinary excretion of K+ at 0.25 mg/kg, iv after 3 hrs (reference value: 0.16 +/- 0.01 mequiv/kg); assay type: functional, Canis lupus familiaris, Urine
[20] = tested on: Canis familiaris; experiment: Diuretic effect in mongrel dog assessed as urinary excretion of Cl- at 1 mg/kg, po after 3 hrs (reference value: 0.08 +/- 0.02 mequiv/kg); assay type: functional, Canis lupus familiaris, Urine
[21] = tested on: Canis familiaris; experiment: Diuretic effect in mongrel dog assessed as urinary excretion of Na+ at 1 mg/kg, po after 3 hrs (reference value: 0.10 +/- 0.02 mequiv/kg); assay type: functional, Canis lupus familiaris, Urine
[22] = tested on: Canis familiaris; experiment: Diuretic effect in mongrel dog assessed as urinary excretion of Cl- at 0.25 mg/kg, iv after 3 hrs (reference value: 0.08 +/- 0.02 mequiv/kg); assay type: functional, Canis lupus familiaris, Urine
[23] = tested on: Canis familiaris; experiment: Diuretic effect in mongrel dog assessed as urinary excretion of K+ at 1 mg/kg, po after 3 hrs (reference value: 0.16 +/- 0.01 mequiv/kg); assay type: functional, Canis lupus familiaris, Urine
[24] = tested on: Canis familiaris; experiment: Diuretic effect in mongrel dog assessed as urinary excretion of water at 0.25 mg/kg, iv after 3 hrs (reference value: 0.93 +/- 0.35 ml/kg); assay type: functional, Canis lupus familiaris, Urine

Q: CC(=O)Nc1cc(C(=O)O)cc(OCc2ccccc2)c1-c1ccccc1 was tested. Which Activity [1] did it give?
A: 1 milliequivalent/kg

Q: And the Activity [2]?
A: 1.1 milliequivalent/kg

Q: What about the Activity [3] of the same molecule?
A: 8 mL/kg

Q: What about the Activity [4] of the same molecule?
A: 0.22 milliequivalent/kg

Q: With CCC(=O)Nc1cc(C(=O)O)cc(OCc2ccccc2)c1C(=O)c1ccccc1 as the molecule, how does the Activity [1] read?
A: 0.6 milliequivalent/kg

Q: What about the Activity [2] of the same molecule?
A: 0.9 milliequivalent/kg

Q: And the Activity [3]?
A: 7 mL/kg

Q: What about the Activity [4] of the same molecule?
A: 0.2 milliequivalent/kg

Q: For CCCSc1cc(C(=O)O)cc(NC=O)c1C(=O)c1ccccc1, which Activity [1] is on record?
A: 1 milliequivalent/kg

Q: What about the Activity [2] of the same molecule?
A: 1.2 milliequivalent/kg

Q: What about the Activity [3] of the same molecule?
A: 8 mL/kg

Q: And the Activity [4]?
A: 0.42 milliequivalent/kg

Q: Which results are given for NS(=O)(=O)c1cc(C(=O)O)cc(OCc2ccccc2)c1C(=O)c1ccccc1?
A: Activity [5]: 2 milliequivalent/kg; Activity [6]: 0.42 milliequivalent/kg; Activity [7]: 1 milliequivalent/kg; Activity [8]: 33 mL/kg; Activity [9]: 0.89 milliequivalent/kg; Activity [10]: 12 mL/kg; Activity [11]: 4.4 milliequivalent/kg; Activity [12]: 3.6 milliequivalent/kg

Q: With CCCNC(=O)Nc1cc(C(=O)O)cc(NCc2ccccc2)c1Oc1ccccc1 as the molecule, how does the Activity [1] read?
A: 0.4 milliequivalent/kg

Q: What about the Activity [13] of the same molecule?
A: 0.4 milliequivalent/kg

Q: And the Activity [14]?
A: 11 mL/kg

Q: And the Activity [2]?
A: 0.3 milliequivalent/kg

Q: What about the Activity [3] of the same molecule?
A: 4 mL/kg

Q: What about the Activity [15] of the same molecule?
A: 1.1 milliequivalent/kg

Q: And the Activity [4]?
A: 0.12 milliequivalent/kg

Q: What about the Activity [16] of the same molecule?
A: 1.9 milliequivalent/kg

Q: CCCCOc1cc(C(=O)O)cc(NC=O)c1C(=O)c1ccccc1 was tested. Which Activity [1] did it give?
A: 2.1 milliequivalent/kg

Q: What about the Activity [7] of the same molecule?
A: 0.5 milliequivalent/kg

Q: And the Activity [3]?
A: 17 mL/kg

Q: What about the Activity [10] of the same molecule?
A: 6 mL/kg

Q: How did the Activity ([1]; Canis lupus familiaris, Urine) turn out when CN(C)c1cc(C(=O)O)cc(OCc2ccccc2)c1C(=O)c1ccccc1 was run?
A: inactive

Q: What about the Activity ([2]; Canis lupus familiaris, Urine) of the same molecule?
A: inactive

Q: What about the Activity ([3]; Canis lupus familiaris, Urine) of the same molecule?
A: inactive

Q: What about the Activity ([4]; Canis lupus familiaris, Urine) of the same molecule?
A: inactive

Q: Which results are given for O=CNc1cc(C(=O)O)cc(OCc2ccccc2)c1-c1ccccc1?
A: Activity [1]: 1.3 milliequivalent/kg; Activity [2]: 1.6 milliequivalent/kg; Activity [3]: 12 mL/kg; Activity [4]: 0.39 milliequivalent/kg

Q: O=CNc1cc(C(=O)O)cc(SCc2ccccc2)c1-c1ccccc1 was tested. Which Activity ([3]; Canis lupus familiaris, Urine) did it give?
A: inactive

Q: With CNC(=O)Nc1cc(C(=O)O)cc(NCc2ccccc2)c1Oc1ccccc1 as the molecule, how does the Activity [1] read?
A: 0.7 milliequivalent/kg

Q: And the Activity [2]?
A: 1.1 milliequivalent/kg

Q: What about the Activity [3] of the same molecule?
A: 8 mL/kg

Q: And the Activity [4]?
A: 0.2 milliequivalent/kg

Q: Which Activity ([17]; Canis lupus familiaris, Urine) does the source give for CN(C)CC(=O)Nc1cc(C(=O)O)cc(OCc2ccccc2)c1C(=O)c1ccccc1 here?
A: inactive

Q: For NC(=O)Nc1cc(C(=O)O)cc(NCc2ccccc2)c1Oc1ccccc1, which Activity [1] is on record?
A: 1.3 milliequivalent/kg

Q: What about the Activity [2] of the same molecule?
A: 1.7 milliequivalent/kg

Q: And the Activity [3]?
A: 13 mL/kg

Q: What about the Activity [4] of the same molecule?
A: 0.33 milliequivalent/kg

Q: Which results are given for CNc1cc(C(=O)O)cc(OCc2ccccc2)c1C(=O)c1ccccc1?
A: Activity ([1]; Canis lupus familiaris, Urine): inactive; Activity ([2]; Canis lupus familiaris, Urine): inactive; Activity ([3]; Canis lupus familiaris, Urine): inactive; Activity ([4]; Canis lupus familiaris, Urine): inactive

Q: With CN(C=O)c1cc(C(=O)O)cc(OCc2ccccc2)c1C(=O)c1ccccc1 as the molecule, how does the Activity ([1]; Canis lupus familiaris, Urine) read?
A: Active

Q: What about the Activity ([2]; Canis lupus familiaris, Urine) of the same molecule?
A: Active

Q: What about the Activity ([3]; Canis lupus familiaris, Urine) of the same molecule?
A: Active

Q: And the Activity ([4]; Canis lupus familiaris, Urine)?
A: Active

Q: Which Activity [18] does the source give for O=CNc1cc(C(=O)O)cc(OCc2ccsc2)c1C(=O)c1ccccc1 here?
A: 2.2 milliequivalent/kg

Q: What about the Activity [19] of the same molecule?
A: 0.49 milliequivalent/kg

Q: What about the Activity [20] of the same molecule?
A: 4.1 milliequivalent/kg

Q: What about the Activity [21] of the same molecule?
A: 3.1 milliequivalent/kg

Q: And the Activity [22]?
A: 2.8 milliequivalent/kg

Q: What about the Activity [23] of the same molecule?
A: 0.64 milliequivalent/kg

Q: What about the Activity [17] of the same molecule?
A: 26 mL/kg

Q: And the Activity [24]?
A: 17 mL/kg

Q: With O=C(O)c1cc(NC(=O)C(F)(F)F)c(C(=O)c2ccccc2)c(OCc2ccccc2)c1 as the molecule, how does the Activity ([17]; Canis lupus familiaris, Urine) read?
A: inactive
